Experimental data: US9486507B2, “Pro-coagulant compounds and methods of use thereof” (priority 2011, dated 2016)
Several values for one entry are separate records, joined by “and”; a condition that tells them apart may be missing. Identical values can stand only once.

Columns and labels:
Assay type in all cases: biochemical
[1] = system: FVIII deficient human plasma; assay: Rotational thromboelastometry (ROTEM) in FVIII-deficient human plasma
Procedure: (§1) Compounds of the present disclosure were tested by rotational thromboelastometry to evaluate coagulation parameters such as clotting time (CT), α-angle, clot formation time (CFT), maximum clot firmness (MCF). Briefly, lyophilized and citrated FVIII deficient human plasma (Siemens) was reconstituted with 1 mL of distilled water, allowed to stand for 20 min at RT and mixed well before use. Alternatively, an aliquot of citrated (non-lyophilized) FVIII deficient human plasma (HRF, George King, Precision Biologics, or real-time donors) was thawed for 10 min in a 37° C. water bath and when needed centrifuged at 2800 g for 5 min at 25° C. FVIII deficient plasma was spiked with lyophilized platelets (Helena Laboratories, final concentration 0.5×10^8 cells/ml) and compounds, FVIII, or both compound and FVIII. Dilutions of compounds of the present disclosure and controls, such as FVIII, were prepared in PBS (—Ca, —Mg). Next, 300 μl of the spiked plasma was transferred to a ROTEM cup already containing 20 μl of StarTEM (concentrated calcium chloride solution) and 20 μl of lipidated TF (American Diagnostica, final concentration 10 fM) or Kaolin (Sigma-Aldrich, final concentration 0.4 μg/ml) and recording was initiated. The cups were maintained at 37° C. during the testing.

[2] = system: FIX-deficient human plasma; assay: ROTEM in FIX-deficient human plasma
Procedure: as §1

[3] = target: FIXa (Homo sapiens, UniProt P00740); assay: Heparin accelerated FIXa-AT complex formation assay; design: purchased Haematologic Technologies; settings: for % FIXa-AT complex formation: with heparin
Procedure: Competition studies between the pro-coagulant peptides and heparin: compounds of the present disclosure were tested in a heparin competition assay in an effort to further map the peptide's binding site on FIXa. FIXa inactivation by antithrombin (AT) was assessed by gel electrophoresis in the presence of heparin and varying procoagulant peptide concentrations. The rate of FIXa-AT complex formation was quantified over a 15 minute time course. […] The samples were incubated at 37° C. in a water bath and 12.5 μL aliquots were removed at each time point (0.5, 2, 5, 10, 15 min) and immediately mixed with 12.5 μL SDS 2× non-reducing sample buffer. The samples were heated at 90° C. for 3 min and loaded onto a 4-20% BioRad gel (20 μL/lane). The gel was run at 300V for 25 min, and the bands were quantified using Quantity One software from BioRad.

[4] = target: T1, FVIIa (Homo sapiens, UniProt P08709); assay: FXa generation assay with human FVIIa; settings: absence of PL
T1 construct: The two-chain Factor VIIa is a polypeptide produced from FVII by hydrolysis of the Arg152-Ile153 peptide bond of FVII; purchased Haematologic Technologies
T1 sequence (P08709 61-212 limits assumed): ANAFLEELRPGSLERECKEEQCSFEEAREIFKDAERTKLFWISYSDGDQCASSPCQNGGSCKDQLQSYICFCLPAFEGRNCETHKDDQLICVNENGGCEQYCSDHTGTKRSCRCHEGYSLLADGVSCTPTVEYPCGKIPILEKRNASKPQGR
T1 sequence (P08709 213-466 limits assumed): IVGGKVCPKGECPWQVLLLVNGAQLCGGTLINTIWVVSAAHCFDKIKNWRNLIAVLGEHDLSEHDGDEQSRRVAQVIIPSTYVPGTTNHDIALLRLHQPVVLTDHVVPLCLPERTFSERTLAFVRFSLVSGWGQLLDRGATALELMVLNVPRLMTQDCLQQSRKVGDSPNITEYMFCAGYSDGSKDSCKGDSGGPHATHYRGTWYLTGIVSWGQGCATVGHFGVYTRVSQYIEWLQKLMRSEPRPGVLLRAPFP
Procedure: Similarly, in order to measure the catalytic activity of FVIIa, a FXa generation assay measuring the ability of the compounds of the present disclosure to enhance the catalytic activity of FVIIa was established. The difference between the two assays was that the final concentration of 10 nM hFIXa was replaced with 10 nM hFVIIa. The remaining reagents and assay procedures described above were unchanged.

[5] = FVIII-deficient plasma (containing platelets), 10 μM
[6] = FVIII-deficient plasma, compound 5 2.5 μM + FVIIa-Fc 10 IU/mL
[7] = FVIII-deficient plasma, compound 5 2.5 μM + FVIIa-Fc 20 IU/mL
[8] = human HemA plasma, 5 μM, anti-FVIII pab +
[9] = human HemA plasma, 5 μM, anti-FVIII pab −
[10] = human HemA plasma, 10 μM, anti-FVIII pab +
[11] = human HemA plasma, 10 μM, anti-FVIII pab −
[12] = FIX-deficient plasma (containing platelets), 10 μM
[13] = FIX-deficient plasma, compound 5 2.5 μM + FIX-Fc 0.25 IU/mL
[14] = human HemB plasma, lyophilized platelets, 10 fM TF, 5 μM
[15] = human HemB plasma, lyophilized platelets, 10 fM TF, 10 μM
[16] = human HemB plasma, 5 μM, anti-FIX pab +
[17] = human HemB plasma, 5 μM, anti-FIX pab −
[18] = human HemB plasma, 10 μM, anti-FIX pab −

Chain of FIXa (P00740 47-191 limits assumed): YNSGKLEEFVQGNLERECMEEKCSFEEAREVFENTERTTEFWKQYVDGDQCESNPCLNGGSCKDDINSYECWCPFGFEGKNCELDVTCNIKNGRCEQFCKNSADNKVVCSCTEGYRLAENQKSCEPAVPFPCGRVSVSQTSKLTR
Chain of FIXa (P00740 227-461 limits assumed): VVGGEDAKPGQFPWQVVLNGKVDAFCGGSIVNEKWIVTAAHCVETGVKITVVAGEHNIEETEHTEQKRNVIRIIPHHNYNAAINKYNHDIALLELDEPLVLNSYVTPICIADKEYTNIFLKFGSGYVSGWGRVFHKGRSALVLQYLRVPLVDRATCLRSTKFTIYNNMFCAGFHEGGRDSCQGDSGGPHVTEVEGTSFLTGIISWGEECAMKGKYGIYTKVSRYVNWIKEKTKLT

## rRAPGKLTCLASYCWLFWTGIA [Compound 5]
[1]; [5]
  Clotting time: 277 s and 298 s
  α-angle, degrees: 34 degrees and 27 degrees
[1]; [6]
  Clotting time: 303.5 s
  α-angle: 38.5 degrees
[1]; [7]
  Clotting time: 115 s
  α-angle: 63 degrees
[1]; compound 5 2.5 and 5 μM, 0 to about 16 mM calcium
  calcium dependence of procoagulant effect (clotting time): sensitive to the calcium concentration
[1]; [8]
  Clotting time: 197 s and 194 s
  α-angle, degrees: 48 degrees and 53 degrees
[1]; [9]
  Clotting time: 154 s and 164 s
  α-angle, degrees: 51 degrees and 58 degrees
[1]; [10]
  Clotting time: 108 s and 110 s
  α-angle, degrees: 67 degrees and 69 degrees
[1]; [11]
  Clotting time: 101 s and 105 s
  α-angle, degrees: 70 degrees and 68 degrees
[2]; [12]
  Clotting time, sec: 1,311 sec and 1,328 sec
  α-angle, degrees: 15 degrees and 19 degrees
[2]; [13]
  Clotting time: 876.5 s
  α-angle: 39.5 degrees
[2]; [14]
  Clotting time: 836 s and 810 s
  α-angle, degrees: 24 degrees and 20 degrees
[2]; [15]
  Clotting time: 804 s and 773 s
  α-angle, degrees: 22 degrees and 21 degrees
[2]; [16]
  Clotting time, sec: 1,660 sec and 1,661 sec
  α-angle, degrees: 9 degrees
[2]; [17]
  Clotting time, sec: 1,420 sec and 1,556 sec
  α-angle, degrees: 11 degrees and 12 degrees
[2]; human HemB plasma, 10 μM, anti-FIX pab +
  α-angle, degrees: 13 degrees and 10 degrees
[2]; [18]
  Clotting time, sec: 1,182 sec and 1,194 sec
  α-angle, degrees: 12; 12 degrees
[3]; absence of heparin
  inactivation of FIXa by AT: unaffected
[3]; heparin 100 nM, compound 5 0.1, 1, 10 μM
  heparin-catalyzed FIXa-AT complex formation: inhibited the FIXa-AT complex formation in a concentration-dependent manner
[3]; Compound 5 0.1 μM, 0.5 min
  % FIXa-AT complex formation: 57%
[3]; Compound 5 0.1 μM, 2 min
  % FIXa-AT complex formation: 72%
[3]; Compound 5 0.1 μM, 5 min
  % FIXa-AT complex formation: 82%
[3]; Compound 5 0.1 μM, 10 min
  % FIXa-AT complex formation: 82%
[3]; Compound 5 0.1 μM, 15 min
  % FIXa-AT complex formation: 83%
[3]; Compound 5 1 μM, 0.5 min
  % FIXa-AT complex formation: 30%
[3]; Compound 5 1 μM, 2 min
  % FIXa-AT complex formation: 45%
[3]; Compound 5 1 μM, 5 min
  % FIXa-AT complex formation: 55%
[3]; Compound 5 1 μM, 10 min
  % FIXa-AT complex formation: 70%
[3]; Compound 5 1 μM, 15 min
  % FIXa-AT complex formation: 74%
[3]; Compound 5 10 μM, 0.5 min
  % FIXa-AT complex formation: 18%
[3]; Compound 5 10 μM, 2 min
  % FIXa-AT complex formation: 28%
[3]; Compound 5 10 μM, 5 min
  % FIXa-AT complex formation: 41%
[3]; Compound 5 10 μM, 10 min
  % FIXa-AT complex formation: 54%
[3]; Compound 5 10 μM, 15 min
  % FIXa-AT complex formation: 62%
[4]
  increase of FVIIa activity, % of control: about 10%
